Experimental data taken from patent US11534434B2 (Karuna Therapeutics, Inc., priority 2019, dated 2022).

Tests used:
[1] = Human liver microsome stability; format: in vitro ADME; conditions: human liver microsomes
Procedure: Human Liver Microsome Stability
Test compounds were dissolved in DMSO to prepare 10 mM stock solutions, diluted to a final test concentration of 100 nM, and incubated at 37° C. with human liver microsomes. Metabolic stability, expressed as a percent of the parent compound remaining, was assessed at 0, 15, 30, 45, and 60 minutes and calculated by comparing the compound's peak area at the time point relative to that at time-0. The half-life (T1/2) was estimated from the slope of the initial linear range of the logarithmic curve of compound remaining (%) vs. time, assuming first-order kinetics. The apparent intrinsic clearance (CLint, in μL/min/pmol, μL/min/mg or μL/min/Mcell) was calculated according to the following formula: CLint=0.693 T1/2*(mg protein/μL or million cells/μL or pmol CYP isoyme/μL).

human M1 mAChR = target: T1, human M1 mAChR (Homo sapiens, UniProt P11229); assay: Whole-cell functional agonist activity, FLIPR Ca2+ release, U2OS-based human M1 mAChR stable cell line
T1 construct: expressed in transfected cells
T1 sequence (P11229 1-460): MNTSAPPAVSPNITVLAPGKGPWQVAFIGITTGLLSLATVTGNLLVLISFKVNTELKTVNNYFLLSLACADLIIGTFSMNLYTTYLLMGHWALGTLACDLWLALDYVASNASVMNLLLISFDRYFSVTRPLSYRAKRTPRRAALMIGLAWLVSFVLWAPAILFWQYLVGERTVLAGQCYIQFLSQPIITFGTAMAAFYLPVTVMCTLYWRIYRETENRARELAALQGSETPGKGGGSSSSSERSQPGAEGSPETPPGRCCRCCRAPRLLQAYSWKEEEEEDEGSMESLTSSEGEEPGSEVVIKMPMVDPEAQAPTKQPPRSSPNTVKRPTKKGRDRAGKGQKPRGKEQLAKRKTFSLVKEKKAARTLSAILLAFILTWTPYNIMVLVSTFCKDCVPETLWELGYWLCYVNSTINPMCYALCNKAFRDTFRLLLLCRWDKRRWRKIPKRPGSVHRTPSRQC
Text: (§1) Whole-cell functional agonist activity in cells expressing recombinant human muscarinic receptor subtypes.
(§2) ThermoFisher's FLIPR™ (Fluorescence Imaging Plate Reader) was used to quantify Ca^2+ release, a functional effect associated with Gaq-coupled M1 and M5 mAChRs. CisBio's phospho-ERK (pERK) Thr202/Tyr204 was used to evaluate Gai/o-coupled M2 and M4 mAChRs responses.
(§3) One day before the assay, M1, M3, and M5 cells were thawed out and plated at 10,000 cells/well into black-walled, clear-bottom, Poly-D-lysine coated 384-well microplates and incubated at 37° C. and 5% CO2 in MEME+10% FBS+1× penicillin/streptomycin/glutamine, for the M1 and M3 cell lines and F-12+10% FBS+1× penicillin/streptomycin/glutamine for the M5 cell line. […] The M1 and M5 responses were analyzed using the CBIS data analysis suite (ChemInnovation, CA).
(§4) Percentage activity was calculated using the following formula: % Activity=100%×(mean RFU of test sample mean RFU of vehicle control)/(mean MAX RFU control ligand mean RFU of vehicle control) where RFU is relative fluorescence unit. The M2 and the M4 cells were thawed out one day before the assay and plated at 2,000 and 1,000 cells per well, respectively, in […] of DMEM/F12+10% FBS in ProxiPlate 384-well white-walled, white-bottom tissue culture-treated plates and incubated at 37° C. and 5% CO2 overnight. Before the assay, cells were serum-starved at 37° C. in 5% CO2 for 4 hours by replacing culture media with […] of F12 media with 8 mM HEPES. The pERK assay was run according to assay kit instructions with minor volume modifications outlined below.

human M5 mAChR = target: T2, human M5 mAChR (Homo sapiens, UniProt P08912); assay: Whole-cell functional agonist activity, FLIPR Ca2+ release, CHOK1-based human M5 mAChR stable cell line; conditions: for Emax: top of curve, % activity vs MAX control ligand, FLIPR Ca2+
T2 construct: expressed in transfected cells
T2 sequence (P08912 1-532): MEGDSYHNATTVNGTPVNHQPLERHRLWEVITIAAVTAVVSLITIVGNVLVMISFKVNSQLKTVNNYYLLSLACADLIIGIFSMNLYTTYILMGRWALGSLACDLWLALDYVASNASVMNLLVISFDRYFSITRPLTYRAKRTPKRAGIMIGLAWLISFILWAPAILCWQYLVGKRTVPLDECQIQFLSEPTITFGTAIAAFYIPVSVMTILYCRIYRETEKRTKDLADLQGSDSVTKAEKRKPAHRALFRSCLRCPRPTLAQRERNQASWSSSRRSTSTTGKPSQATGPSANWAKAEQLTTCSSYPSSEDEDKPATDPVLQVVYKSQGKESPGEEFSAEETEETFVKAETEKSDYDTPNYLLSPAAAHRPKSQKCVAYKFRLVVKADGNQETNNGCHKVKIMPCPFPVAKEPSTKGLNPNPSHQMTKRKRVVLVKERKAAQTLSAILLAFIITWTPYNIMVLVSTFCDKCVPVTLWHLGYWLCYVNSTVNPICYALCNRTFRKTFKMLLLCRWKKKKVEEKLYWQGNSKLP
Text: as §1, §2, §3, §4

human M3 mAChR = target: T3, human M3 mAChR (Homo sapiens, UniProt P20309); assay: Whole-cell functional agonist activity, FLIPR Ca2+ release, U2OS-based human M3 mAChR stable cell line; conditions: for EC50: agonist, FLIPR Ca2+ release, U2OS human M3 cells; for Emax: top of curve, % activity vs MAX control ligand, FLIPR Ca2+
T3 construct: expressed in transfected cells
T3 sequence (P20309 whole entry): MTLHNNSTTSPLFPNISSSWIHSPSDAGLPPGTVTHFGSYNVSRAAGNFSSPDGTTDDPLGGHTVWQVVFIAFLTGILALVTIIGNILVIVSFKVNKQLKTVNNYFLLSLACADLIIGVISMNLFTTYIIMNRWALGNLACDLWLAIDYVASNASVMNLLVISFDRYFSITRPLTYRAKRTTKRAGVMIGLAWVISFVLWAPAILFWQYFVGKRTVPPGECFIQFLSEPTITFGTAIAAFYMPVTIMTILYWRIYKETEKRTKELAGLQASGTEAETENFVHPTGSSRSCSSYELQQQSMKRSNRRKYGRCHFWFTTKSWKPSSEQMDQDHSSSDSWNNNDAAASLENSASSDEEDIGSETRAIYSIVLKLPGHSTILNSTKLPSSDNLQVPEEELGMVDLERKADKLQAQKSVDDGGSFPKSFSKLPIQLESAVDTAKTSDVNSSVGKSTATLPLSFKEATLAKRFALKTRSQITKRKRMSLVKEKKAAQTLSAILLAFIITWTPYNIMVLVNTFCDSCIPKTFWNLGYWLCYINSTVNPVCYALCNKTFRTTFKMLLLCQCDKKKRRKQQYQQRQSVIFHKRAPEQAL
Text: as §1, §2
One day before the assay, M1, M3, and M5 cells were thawed out and plated at 10,000 cells/well into black-walled, clear-bottom, Poly-D-lysine coated 384-well microplates and incubated at 37° C. and 5% CO2 in MEME+10% FBS+1× penicillin/streptomycin/glutamine, for the M1 and M3 cell lines and F-12+10% FBS+1× penicillin/streptomycin/glutamine for the M5 cell line. On the day of the test, the media was aspirated and replaced with […] fluo-4 dye loading buffer (1× dye, 1× additive A and 2.5 mM fresh probenecid in HBSS and 20 mM HEPES) and incubated at 37° C. and 5% CO2 for 45 minutes. After the incubation, cells were removed from the incubator, […] of HBSS and 20 mM HEPES was added for a total volume of […], and the cells were allowed to equilibrate at room temperature for 15 minutes in the dark before compounds were applied, by adding 4× compound solution in […] of HBSS, 0.4% DMSO and 20 mM HEPES buffer (made from a 10 mM compound stock solution in 100% DMSO), and responses were recorded for 2 minutes in FLIPR Tetra after compound administration. The M1 and M5 responses were analyzed using the CBIS data analysis suite (ChemInnovation, CA).
as §4

[2] = tested on: muscarinic acetylcholine receptor (mAChRs) human M1-M5 (hM1-hM5); conditions: pERK, CHO cells
Text: In-Vitro Radioligand Binding Assays
The Flp-In™ cell lines are designed to generate stable cell lines that express a protein of interest from an Flp-In™ expression vector.
An extracellular signal-related kinase (ERK1/2 or p42/44) is a kinase in the mitogen-activated protein kinase (MAPK) family. Phosphorylation of ERK (pERK) can be used as a common endpoint measurement for the activation of many classes of G protein-coupled receptors (GPCR) and beta-arrestin linked signaling.
For the pERK assay, cells were serum-starved for 5 to 6 hours. Curves were normalized to the maximum response from the fetal bovine serum (FBS) medium corresponding to a 5-minute stimulation. A 5-minute incubation with the agonists was selected for the dose-response pERK assays (n=2).
Nonlinear regression curves were calculated per the three parameters method with no constraints.

[3] = Pharmacokinetics following single oral dose administration in male Sprague-Dawley rats; format: in vivo; conditions: rat, oral administration of tartrate salts 25 mg/kg
Procedure: In-Vivo Assessment of Pharmacokinetics Following Oral Dose Administration in Male Sprague-Dawley Rats
Blood samples were collected from all animals in Groups 1-3 at 0.25, 0.5, 1, 2, 4, 6, 8, 12, and 24 hours post-dose, with each animal, bled at all time points. […] The slopes of the elimination phase of the concentrations vs. time curve used to calculate the T1/2 were determined by log-linear regression.
PK analyses were performed and validated using Phoenix® WinNonlin® version 8.0.

human M2 mAChR = target: T4, human M2 mAChR (Homo sapiens, UniProt P08172); assay: Whole-cell functional agonist activity, phospho-ERK (pERK), CHOK1-based human M2 mAChR stable cell line; conditions: top of curve, % of min (DMSO) and max (10 mM Acetylcholine) responses
T4 construct: expressed in transfected cells
T4 sequence (P08172 1-466): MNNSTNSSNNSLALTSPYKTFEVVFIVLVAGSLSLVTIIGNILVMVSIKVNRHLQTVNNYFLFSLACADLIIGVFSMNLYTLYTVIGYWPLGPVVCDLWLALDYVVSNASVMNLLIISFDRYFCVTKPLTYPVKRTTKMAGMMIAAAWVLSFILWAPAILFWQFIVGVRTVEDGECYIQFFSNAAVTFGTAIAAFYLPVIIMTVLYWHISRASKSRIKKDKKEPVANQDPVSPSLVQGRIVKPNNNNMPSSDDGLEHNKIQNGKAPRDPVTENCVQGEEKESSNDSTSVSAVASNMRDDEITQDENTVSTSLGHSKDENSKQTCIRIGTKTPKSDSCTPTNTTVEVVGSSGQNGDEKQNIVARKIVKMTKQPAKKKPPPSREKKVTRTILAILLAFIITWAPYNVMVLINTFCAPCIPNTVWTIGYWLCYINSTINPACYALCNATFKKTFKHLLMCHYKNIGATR
Procedure: as §1, §2, §4
(§5) Compound addition was carried out by adding 3× compound solution in […] of media with 0.3% DMSO (made from a 10 mM compound stock solution in 100% DMSO) for 5 minutes before the reaction was terminated by adding […] lysis and blocking solution. Cells were left in the lysis solution for 30 minutes before […] of antibody (Eu and d2) solution was added for an additional 2-hour incubation while protected from light. The plates were then read on laser Pherastar using the TR-FRET protocol.

human M4 mAChR = target: T5, human M4 mAChR (Homo sapiens, UniProt P08173); assay: Whole-cell functional agonist activity, phospho-ERK (pERK), CHOK1-based human M4 mAChR stable cell line; conditions: top of curve, % of min (DMSO) and max (10 mM Acetylcholine) responses
T5 construct: expressed in transfected cells
T5 sequence (P08173 1-479): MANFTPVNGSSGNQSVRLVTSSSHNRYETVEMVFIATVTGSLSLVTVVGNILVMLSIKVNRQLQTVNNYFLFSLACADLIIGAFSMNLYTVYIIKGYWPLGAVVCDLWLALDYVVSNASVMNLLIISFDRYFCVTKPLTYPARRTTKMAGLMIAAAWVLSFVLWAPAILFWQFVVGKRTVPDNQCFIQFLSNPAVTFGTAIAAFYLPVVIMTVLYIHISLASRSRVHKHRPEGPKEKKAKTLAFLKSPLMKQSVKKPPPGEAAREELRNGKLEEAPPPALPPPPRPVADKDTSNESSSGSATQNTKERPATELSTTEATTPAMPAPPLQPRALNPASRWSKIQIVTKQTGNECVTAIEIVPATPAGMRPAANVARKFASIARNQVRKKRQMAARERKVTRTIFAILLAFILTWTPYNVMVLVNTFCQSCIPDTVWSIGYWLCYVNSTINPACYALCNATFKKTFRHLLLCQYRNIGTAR
Procedure: as §1, §2, §4, §5

[4] = Storage stability of the tartrate salt (reanalysis by LC-MS, 1H NMR, 19F NMR); format: physicochemical
Procedure: The tartrate salt of the title compound was unstable at test storage conditions. Although the initial NMR spectra were clean, the LCMS purity was about 75%. After storage at 0° C. for six months, the sample was reanalyzed by ^1H-NMR, ^19F-NMR, and LC-MS.

CCCC(F)(F)CCOc1nsnc1C1=CCCN(C)C1 [Example 10, 3-((3,3-Difluorohexyl)oxy)-4-(1-methyl-1,2,5,6-tetrahydropyridin-3-yl)-1,2,5-thiadiazole]
microsomal CLint at 100 nM ([1]; apparent intrinsic clearance, no unit in table (μL/min/pmol, μL/min/mg or μL/min/Mcell)): 701 µL/min/mg
Parent at 60 min (%) ([1]; 100 nM, 37° C., tartrate salt): 1%
half-life at 100 nM ([1]; 100 nM, 37° C., tartrate salt): 10 min
EC50 (human M1 mAChR; agonist, FLIPR Ca2+ release, U2OS human M1 cells): 4.2 nM
Emax (human M1 mAChR; top of curve, % activity vs MAX control ligand, FLIPR Ca2+): 90%
EC50 (human M5 mAChR; agonist, FLIPR Ca2+ release, CHOK1 human M5 cells): 26.5 nM
Emax (human M5 mAChR): 87%
EC50 (human M3 mAChR): > 10000 nM
Emax (human M3 mAChR): 9%

[2H]C([2H])([2H])N1CCC=C(c2nsnc2OC([2H])([2H])C([2H])([2H])C([2H])([2H])C([2H])([2H])C([2H])([2H])C([2H])([2H])[2H])C1 [Xanomeline-d16, 3-((hexyl-1,1,2,2,3,3,4,4,5,5,6,6,6-d13)oxy)-4-(1-(methyl-d3)-1,2,5,6-tetrahydropyridin-3-yl)-1,2,5-thiadiazole]
agonist profile at hM3, hM5, hM2 [2]: modestly potent partial agonists at mAChRs hM3>hM5>hM2
agonist profile at hM4, hM1 [2]: efficacious partial agonist at hM4>hM1

CCCCCCOc1nsnc1C1=CCCN(C)C1 [Xanomeline, 3-(hexyloxy)-4-(1-methyl-1,2,5,6-tetrahydropyridin-3-yl)-1,2,5-thiadiazole, reference compound]
plasma levels compared between treatments [3]: about mid-way between the levels of xanomeline-d16 and xanomeline-d13
M2 Top (%) (human M2 mAChR): 1%
M4 Top (%) (human M4 mAChR): 100%
Emax (human M5 mAChR): 92%
EC50 (human M3 mAChR): > 10000 nM
Emax (human M3 mAChR): 17%

FC(F)(F)CCCCCOc1nsnc1C1=CCCN(C(F)(F)F)C1 [Example 2, 3-((6,6,6-Trifluorohexyl)oxy)-4-(1-(trifluoromethyl)-1,2,5,6-tetrahydropyridin-3-yl)-1,2,5-thiadiazole]
storage stability of tartrate salt ([4]; six months of storage at 0° C., LC-MS, 1H NMR, 19F NMR): none of the title compound remained in the sample

[2H]C([2H])([2H])C([2H])([2H])C([2H])([2H])C([2H])([2H])C([2H])([2H])C([2H])([2H])Oc1nsnc1C1=CCCN(C)C1 [Xanomeline-d13, 3-((Hexyl-1,1,2,2,3,3,4,4,5,5,6,6,6-d13)oxy)-4-(1-methyl-1,2,5,6-tetrahydropyridin-3-yl)-1,2,5-thiadiazole]
agonist profile at hM3, hM5, hM2 [2]: modestly potent partial agonists at mAChRs hM3>hM5>hM2
agonist profile at hM4, hM1 [2]: efficacious partial agonist at hM4>hM1

CCCCCCOc1nsnc1C1=CCCN(C(F)(F)F)C1 [Example 3, 3-(Hexyloxy)-4-(1-(trifluoromethyl)-1,2,5,6-tetrahydropyridin-3-yl)-1,2,5-thiadiazole]
stability of tartrate salt preparation by LCMS ([4]; after 2 days): turned messy
